Activity calls are given as the source filed them. Rule as the data show it, for most assays here: actives have a measured Kd and inactives only a lower limit.
Key:
[1] = target: T1, Serine/threonine-protein kinase 3 (Homo sapiens, UniProt Q13188)
T1 sequence (Q13188 whole entry): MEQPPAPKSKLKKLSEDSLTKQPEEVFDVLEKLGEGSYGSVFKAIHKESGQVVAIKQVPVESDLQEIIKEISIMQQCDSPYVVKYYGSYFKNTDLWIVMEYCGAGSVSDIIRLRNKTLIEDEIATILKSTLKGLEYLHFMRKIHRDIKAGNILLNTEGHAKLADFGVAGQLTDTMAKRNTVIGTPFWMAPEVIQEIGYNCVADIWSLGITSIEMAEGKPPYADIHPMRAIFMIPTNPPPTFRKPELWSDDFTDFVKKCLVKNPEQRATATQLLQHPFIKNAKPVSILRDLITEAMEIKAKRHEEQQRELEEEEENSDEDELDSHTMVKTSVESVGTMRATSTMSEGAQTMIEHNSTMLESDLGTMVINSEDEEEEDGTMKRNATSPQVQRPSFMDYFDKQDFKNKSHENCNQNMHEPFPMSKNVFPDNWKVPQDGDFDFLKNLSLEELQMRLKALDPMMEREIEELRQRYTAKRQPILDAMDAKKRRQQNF

[2] = target: T2, Dynamin-like GTPase OPA1, mitochondrial (Homo sapiens, UniProt O60313)
T2 sequence (O60313 whole entry): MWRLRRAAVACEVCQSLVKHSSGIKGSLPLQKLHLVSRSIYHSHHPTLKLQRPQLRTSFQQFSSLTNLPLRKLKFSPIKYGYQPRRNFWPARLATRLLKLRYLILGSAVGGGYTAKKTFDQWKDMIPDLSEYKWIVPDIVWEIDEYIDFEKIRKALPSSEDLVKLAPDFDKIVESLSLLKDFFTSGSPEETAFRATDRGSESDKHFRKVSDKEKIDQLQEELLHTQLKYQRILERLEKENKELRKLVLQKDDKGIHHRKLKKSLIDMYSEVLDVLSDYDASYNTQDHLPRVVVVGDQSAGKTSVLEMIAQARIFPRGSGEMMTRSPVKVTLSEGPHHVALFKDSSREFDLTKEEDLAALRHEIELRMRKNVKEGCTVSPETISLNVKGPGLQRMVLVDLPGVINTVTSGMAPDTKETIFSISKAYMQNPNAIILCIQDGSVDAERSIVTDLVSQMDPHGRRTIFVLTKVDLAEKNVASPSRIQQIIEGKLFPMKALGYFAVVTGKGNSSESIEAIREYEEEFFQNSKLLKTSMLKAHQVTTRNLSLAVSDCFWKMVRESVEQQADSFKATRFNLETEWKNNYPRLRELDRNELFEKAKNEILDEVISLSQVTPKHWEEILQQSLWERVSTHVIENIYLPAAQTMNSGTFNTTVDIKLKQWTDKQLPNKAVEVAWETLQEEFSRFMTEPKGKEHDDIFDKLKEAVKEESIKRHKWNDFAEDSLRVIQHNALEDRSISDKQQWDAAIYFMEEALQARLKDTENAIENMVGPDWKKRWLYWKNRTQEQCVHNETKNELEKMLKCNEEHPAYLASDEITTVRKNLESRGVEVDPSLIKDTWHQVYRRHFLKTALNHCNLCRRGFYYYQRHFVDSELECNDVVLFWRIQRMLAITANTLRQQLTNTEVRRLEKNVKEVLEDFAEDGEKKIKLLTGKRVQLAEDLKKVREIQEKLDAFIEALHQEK

[3] = target: Serine/threonine-protein kinase N2 (Homo sapiens, UniProt Q16513)
Chain of Serine/threonine-protein kinase N2 (Q16513 whole entry): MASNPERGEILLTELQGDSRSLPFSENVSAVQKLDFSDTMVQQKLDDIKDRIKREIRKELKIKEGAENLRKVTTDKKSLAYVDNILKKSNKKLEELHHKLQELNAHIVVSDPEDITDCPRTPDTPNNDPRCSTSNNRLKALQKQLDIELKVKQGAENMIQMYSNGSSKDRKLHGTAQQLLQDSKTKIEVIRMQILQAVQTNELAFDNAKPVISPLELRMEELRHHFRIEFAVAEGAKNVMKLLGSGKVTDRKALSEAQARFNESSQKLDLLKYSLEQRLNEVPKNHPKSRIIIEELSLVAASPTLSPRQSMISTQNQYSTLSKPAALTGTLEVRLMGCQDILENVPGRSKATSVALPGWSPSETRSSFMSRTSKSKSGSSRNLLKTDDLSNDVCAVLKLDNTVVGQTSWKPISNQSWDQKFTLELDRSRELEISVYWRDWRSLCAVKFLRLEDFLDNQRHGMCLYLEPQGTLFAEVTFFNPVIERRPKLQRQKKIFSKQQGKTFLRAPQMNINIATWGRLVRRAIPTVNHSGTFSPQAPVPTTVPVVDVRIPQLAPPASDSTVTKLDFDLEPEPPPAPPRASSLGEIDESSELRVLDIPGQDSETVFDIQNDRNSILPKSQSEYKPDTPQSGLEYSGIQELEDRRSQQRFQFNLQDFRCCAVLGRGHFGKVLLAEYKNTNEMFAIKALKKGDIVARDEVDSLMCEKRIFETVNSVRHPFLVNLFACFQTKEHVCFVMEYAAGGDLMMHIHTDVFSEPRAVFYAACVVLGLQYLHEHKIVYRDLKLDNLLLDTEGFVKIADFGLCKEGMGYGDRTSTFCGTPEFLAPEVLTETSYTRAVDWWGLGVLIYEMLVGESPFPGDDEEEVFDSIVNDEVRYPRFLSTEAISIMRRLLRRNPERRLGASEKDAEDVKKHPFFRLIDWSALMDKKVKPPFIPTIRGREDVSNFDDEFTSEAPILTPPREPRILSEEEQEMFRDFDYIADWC

[4] = target: Ribosomal protein S6 kinase alpha-5 (Homo sapiens, UniProt O75582)
Chain of Ribosomal protein S6 kinase alpha-5 (O75582 whole entry): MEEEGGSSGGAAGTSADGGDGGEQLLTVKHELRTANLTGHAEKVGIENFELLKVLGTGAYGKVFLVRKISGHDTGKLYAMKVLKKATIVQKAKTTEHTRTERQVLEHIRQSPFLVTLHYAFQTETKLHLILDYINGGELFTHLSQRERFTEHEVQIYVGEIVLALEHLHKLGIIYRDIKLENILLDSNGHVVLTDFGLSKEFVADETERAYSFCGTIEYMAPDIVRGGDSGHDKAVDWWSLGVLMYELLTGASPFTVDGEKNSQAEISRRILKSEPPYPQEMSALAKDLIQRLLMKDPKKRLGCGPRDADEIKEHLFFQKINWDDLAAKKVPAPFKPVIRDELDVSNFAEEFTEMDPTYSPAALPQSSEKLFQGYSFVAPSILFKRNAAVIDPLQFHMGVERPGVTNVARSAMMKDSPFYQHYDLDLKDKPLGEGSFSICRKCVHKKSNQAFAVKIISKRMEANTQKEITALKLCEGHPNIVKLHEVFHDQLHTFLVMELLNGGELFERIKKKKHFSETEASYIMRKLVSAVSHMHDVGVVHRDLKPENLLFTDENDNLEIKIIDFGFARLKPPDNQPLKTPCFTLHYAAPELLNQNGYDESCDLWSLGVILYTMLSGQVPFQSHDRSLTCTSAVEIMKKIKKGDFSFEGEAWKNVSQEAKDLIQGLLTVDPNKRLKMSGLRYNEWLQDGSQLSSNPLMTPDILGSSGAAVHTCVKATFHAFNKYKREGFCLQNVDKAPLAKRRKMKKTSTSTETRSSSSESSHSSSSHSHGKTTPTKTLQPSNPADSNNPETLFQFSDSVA

[5] = target: Mitotic checkpoint serine/threonine-protein kinase BUB1 (Homo sapiens, UniProt O43683)
Chain of Mitotic checkpoint serine/threonine-protein kinase BUB1 (O43683 whole entry): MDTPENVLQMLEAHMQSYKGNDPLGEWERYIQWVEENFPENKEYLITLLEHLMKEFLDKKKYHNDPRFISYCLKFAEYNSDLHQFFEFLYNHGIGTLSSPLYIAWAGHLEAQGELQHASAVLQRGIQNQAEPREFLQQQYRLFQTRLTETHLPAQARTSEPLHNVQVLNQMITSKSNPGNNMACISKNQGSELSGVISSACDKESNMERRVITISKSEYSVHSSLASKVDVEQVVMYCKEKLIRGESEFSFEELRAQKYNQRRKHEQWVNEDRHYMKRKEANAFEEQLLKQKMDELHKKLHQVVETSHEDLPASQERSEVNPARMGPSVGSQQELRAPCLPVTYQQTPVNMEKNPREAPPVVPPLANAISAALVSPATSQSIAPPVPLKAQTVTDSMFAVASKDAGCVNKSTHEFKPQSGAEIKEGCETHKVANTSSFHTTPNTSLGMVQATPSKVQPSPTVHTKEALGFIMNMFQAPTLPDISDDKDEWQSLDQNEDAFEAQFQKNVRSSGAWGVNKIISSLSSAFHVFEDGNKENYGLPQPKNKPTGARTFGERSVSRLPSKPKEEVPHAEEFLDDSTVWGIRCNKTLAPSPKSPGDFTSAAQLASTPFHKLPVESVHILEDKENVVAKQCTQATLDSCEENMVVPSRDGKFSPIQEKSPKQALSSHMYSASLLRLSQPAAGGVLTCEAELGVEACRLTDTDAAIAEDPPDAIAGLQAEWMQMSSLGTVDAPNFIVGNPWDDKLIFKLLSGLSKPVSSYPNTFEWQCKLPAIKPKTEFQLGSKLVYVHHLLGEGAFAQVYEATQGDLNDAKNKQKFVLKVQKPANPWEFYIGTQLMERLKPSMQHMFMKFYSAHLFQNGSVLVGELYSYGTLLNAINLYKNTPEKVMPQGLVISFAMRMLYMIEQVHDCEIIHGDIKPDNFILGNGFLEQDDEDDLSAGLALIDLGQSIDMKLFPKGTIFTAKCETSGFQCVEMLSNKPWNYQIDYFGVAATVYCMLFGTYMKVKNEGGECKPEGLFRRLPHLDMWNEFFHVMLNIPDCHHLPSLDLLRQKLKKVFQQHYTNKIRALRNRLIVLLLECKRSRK

[6] = target: STE20-like serine/threonine-protein kinase (Homo sapiens, UniProt Q9H2G2)
[7] = target: Eukaryotic translation initiation factor 2-alpha kinase 1 (Homo sapiens, UniProt Q9BQI3)
Chain of Eukaryotic translation initiation factor 2-alpha kinase 1 (Q9BQI3 whole entry): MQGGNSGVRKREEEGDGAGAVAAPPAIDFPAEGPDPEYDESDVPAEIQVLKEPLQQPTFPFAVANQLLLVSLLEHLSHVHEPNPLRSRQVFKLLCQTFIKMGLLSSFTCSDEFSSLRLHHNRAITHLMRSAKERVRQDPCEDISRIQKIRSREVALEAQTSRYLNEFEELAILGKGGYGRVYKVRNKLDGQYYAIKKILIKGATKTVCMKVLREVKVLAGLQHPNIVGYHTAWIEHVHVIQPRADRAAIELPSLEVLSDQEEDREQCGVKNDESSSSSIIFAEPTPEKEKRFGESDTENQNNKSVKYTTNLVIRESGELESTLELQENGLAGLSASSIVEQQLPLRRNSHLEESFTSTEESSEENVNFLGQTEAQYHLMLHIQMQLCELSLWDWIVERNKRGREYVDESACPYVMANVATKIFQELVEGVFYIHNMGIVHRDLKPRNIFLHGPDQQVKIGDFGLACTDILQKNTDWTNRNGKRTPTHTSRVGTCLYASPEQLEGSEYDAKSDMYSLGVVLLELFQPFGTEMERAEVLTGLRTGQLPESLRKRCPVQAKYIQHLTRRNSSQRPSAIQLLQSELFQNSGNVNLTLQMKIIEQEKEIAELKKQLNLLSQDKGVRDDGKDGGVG

[8] = target: Mitogen-activated protein kinase kinase kinase 4 (Homo sapiens, UniProt Q9Y6R4)
Chain of Mitogen-activated protein kinase kinase kinase 4 (Q9Y6R4 whole entry): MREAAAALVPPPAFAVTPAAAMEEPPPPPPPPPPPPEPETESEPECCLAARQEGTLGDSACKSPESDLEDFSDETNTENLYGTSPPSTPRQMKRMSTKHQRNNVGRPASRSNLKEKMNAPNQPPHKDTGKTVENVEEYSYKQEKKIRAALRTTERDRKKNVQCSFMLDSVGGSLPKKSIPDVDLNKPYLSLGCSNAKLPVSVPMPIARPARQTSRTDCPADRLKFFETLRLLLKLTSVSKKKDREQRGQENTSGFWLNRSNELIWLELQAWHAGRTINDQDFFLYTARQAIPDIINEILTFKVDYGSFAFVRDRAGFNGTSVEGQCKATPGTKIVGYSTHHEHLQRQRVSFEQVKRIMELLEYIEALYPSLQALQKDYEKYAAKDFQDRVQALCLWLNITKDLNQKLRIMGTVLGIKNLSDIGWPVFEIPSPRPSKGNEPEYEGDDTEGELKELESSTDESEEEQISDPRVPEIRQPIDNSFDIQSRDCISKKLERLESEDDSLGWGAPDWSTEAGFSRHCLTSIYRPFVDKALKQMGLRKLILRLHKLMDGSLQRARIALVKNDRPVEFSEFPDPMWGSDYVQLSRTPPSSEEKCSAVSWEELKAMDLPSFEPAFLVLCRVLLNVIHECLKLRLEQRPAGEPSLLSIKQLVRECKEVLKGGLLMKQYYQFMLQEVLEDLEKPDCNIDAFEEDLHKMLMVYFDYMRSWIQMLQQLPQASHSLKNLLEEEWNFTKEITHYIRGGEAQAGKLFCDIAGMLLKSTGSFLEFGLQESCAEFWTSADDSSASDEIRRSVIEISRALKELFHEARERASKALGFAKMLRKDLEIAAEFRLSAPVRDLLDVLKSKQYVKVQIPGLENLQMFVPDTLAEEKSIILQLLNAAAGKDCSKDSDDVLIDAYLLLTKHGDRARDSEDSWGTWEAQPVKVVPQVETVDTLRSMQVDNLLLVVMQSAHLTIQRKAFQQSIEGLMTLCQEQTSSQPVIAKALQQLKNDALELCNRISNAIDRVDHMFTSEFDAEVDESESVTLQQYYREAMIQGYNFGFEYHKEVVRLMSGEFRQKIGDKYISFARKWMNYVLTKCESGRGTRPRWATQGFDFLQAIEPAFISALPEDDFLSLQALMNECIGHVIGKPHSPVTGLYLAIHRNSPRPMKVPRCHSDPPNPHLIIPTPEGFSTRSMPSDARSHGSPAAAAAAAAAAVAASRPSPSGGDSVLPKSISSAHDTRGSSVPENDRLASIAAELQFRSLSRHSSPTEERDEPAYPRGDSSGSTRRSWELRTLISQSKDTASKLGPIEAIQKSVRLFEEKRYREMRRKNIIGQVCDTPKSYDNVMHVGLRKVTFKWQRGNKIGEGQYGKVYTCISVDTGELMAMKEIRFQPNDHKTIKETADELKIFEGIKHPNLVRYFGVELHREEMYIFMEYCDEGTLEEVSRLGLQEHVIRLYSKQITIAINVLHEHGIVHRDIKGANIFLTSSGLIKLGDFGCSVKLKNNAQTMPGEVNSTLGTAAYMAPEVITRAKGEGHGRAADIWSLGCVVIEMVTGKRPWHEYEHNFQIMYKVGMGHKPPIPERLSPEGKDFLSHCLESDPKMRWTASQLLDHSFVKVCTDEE

Ephrin type-B receptor 3 = target: T3, Ephrin type-B receptor 3 (Homo sapiens, UniProt P54753)
T3 sequence (P54753 whole entry): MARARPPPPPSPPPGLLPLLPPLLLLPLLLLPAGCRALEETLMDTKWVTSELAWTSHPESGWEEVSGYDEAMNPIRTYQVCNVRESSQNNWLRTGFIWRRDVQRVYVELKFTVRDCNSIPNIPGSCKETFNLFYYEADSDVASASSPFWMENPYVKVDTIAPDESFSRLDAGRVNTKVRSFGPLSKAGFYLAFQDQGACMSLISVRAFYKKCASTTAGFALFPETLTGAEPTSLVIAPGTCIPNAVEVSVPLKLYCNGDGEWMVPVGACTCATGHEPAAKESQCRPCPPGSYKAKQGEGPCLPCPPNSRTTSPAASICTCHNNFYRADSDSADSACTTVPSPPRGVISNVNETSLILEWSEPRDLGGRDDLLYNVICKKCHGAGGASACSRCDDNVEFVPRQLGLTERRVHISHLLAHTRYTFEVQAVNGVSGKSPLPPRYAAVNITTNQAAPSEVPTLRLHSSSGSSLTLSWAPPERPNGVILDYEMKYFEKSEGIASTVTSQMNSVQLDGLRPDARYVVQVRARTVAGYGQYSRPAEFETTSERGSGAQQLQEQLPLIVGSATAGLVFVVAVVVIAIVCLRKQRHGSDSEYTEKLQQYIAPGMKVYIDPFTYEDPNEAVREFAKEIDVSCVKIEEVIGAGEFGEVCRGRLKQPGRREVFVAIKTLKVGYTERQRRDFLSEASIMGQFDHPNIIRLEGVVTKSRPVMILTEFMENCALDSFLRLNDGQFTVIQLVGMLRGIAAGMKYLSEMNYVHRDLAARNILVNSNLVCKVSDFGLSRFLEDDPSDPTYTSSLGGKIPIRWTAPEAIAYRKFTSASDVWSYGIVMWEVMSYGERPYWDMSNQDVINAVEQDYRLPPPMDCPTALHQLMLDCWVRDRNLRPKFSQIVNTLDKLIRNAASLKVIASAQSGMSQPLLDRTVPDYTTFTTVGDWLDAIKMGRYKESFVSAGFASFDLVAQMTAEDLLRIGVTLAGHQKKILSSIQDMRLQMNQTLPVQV
Also: in the data inactive means no Kd found up to 30 µM.

Row | Structure (SMILES) | Kd [1] | Kd [2] | Kd [3] | Kd [4] | Kd [5] | Kd [6] | Kd [7] | Kd [8] | Kd (Ephrin type-B receptor 3)
1 | CN(C)C(=O)c1cc2cnc(Nc3ccc(N4CCNCC4)cn3)nc2n1C1CCCC1 [RIBOCICLIB] | > 30 µM (inactive) | > 30 µM (inactive) | > 30 µM (inactive) | > 30 µM (inactive) | > 30 µM (inactive) | > 30 µM (inactive) | > 30 µM (inactive) | > 30 µM (inactive) | > 30 µM (inactive)
2 | COc1cc(OC)c(/C=C/S(=O)(=O)Cc2ccc(OC)c(NCC(=O)O)c2)c(OC)c1 [RIGOSERTIB] | > 30 µM (inactive) | > 30 µM (inactive) | > 30 µM (inactive) | > 30 µM (inactive) | > 30 µM (inactive) | > 30 µM (inactive) | > 30 µM (inactive) | > 30 µM (inactive) | > 30 µM (inactive)
3 | CNC(=O)CN1CCC(Oc2cc3c(Nc4cccc(Cl)c4F)ncnc3cc2OC)CC1 [SAPITINIB] | > 30 µM (inactive) | > 30 µM (inactive) | > 30 µM (inactive) | > 30 µM (inactive) | > 30 µM (inactive) | > 30 µM (inactive) | > 30 µM (inactive) | > 30 µM (inactive) | > 30 µM (inactive)
4 | CN1CCC(CNc2ccc3ncc(-c4cccc(OC(F)(F)F)c4)n3n2)CC1 [SGI-1776] | > 30 µM (inactive) | > 30 µM (inactive) | > 30 µM (inactive) | > 30 µM (inactive) | > 30 µM (inactive) | 3.59 µM (active) | > 30 µM (inactive) | > 30 µM (inactive) | > 30 µM (inactive)
5 | C[C@@H]1CN(Cc2ccc(F)cc2)[C@@H](C)CN1C(=O)c1cc2c(C(=O)C(=O)N(C)C)cn(C)c2cc1Cl [TALMAPIMOD] | > 30 µM (inactive) | > 30 µM (inactive) | > 30 µM (inactive) | > 30 µM (inactive) | > 30 µM (inactive) | > 30 µM (inactive) | > 30 µM (inactive) | > 30 µM (inactive) | > 30 µM (inactive)
6 | CN1CCC(COc2cnc(-c3cccc(Cn4nc(-c5cccc(C#N)c5)ccc4=O)c3)nc2)CC1 [TEPOTINIB] | > 30 µM (inactive) | > 30 µM (inactive) | > 30 µM (inactive) | > 30 µM (inactive) | > 30 µM (inactive) | > 30 µM (inactive) | > 30 µM (inactive) | > 30 µM (inactive) | > 30 µM (inactive)
7 | O=c1sn(-c2cccc3ccccc23)c(=O)n1Cc1ccccc1 [TIDEGLUSIB] | > 30 µM (inactive) | > 30 µM (inactive) | > 30 µM (inactive) | > 30 µM (inactive) | > 30 µM (inactive) | > 30 µM (inactive) | > 30 µM (inactive) | > 30 µM (inactive) | > 30 µM (inactive)

Results, then the molecule that gave them:

Row | Kd [1] | Kd [2] | Kd [3] | Kd [4] | Kd [5] | Kd [6] | Kd [7] | Kd [8] | Kd (Ephrin type-B receptor 3) | Structure (SMILES)
8 | > 30 µM (inactive) | > 30 µM (inactive) | > 30 µM (inactive) | > 30 µM (inactive) | > 30 µM (inactive) | > 30 µM (inactive) | > 30 µM (inactive) | > 30 µM (inactive) | 5.43 µM (active) | COc1cc2nccc(Oc3ccc(NC(=O)Nc4cc(C)on4)c(Cl)c3)c2cc1OC [TIVOZANIB]
9 | > 30 µM (inactive) | > 30 µM (inactive) | > 30 µM (inactive) | > 30 µM (inactive) | > 30 µM (inactive) | > 30 µM (inactive) | > 30 µM (inactive) | > 30 µM (inactive) | > 30 µM (inactive) | CC(=O)Nc1cccc(-n2c(=O)n(C3CC3)c(=O)c3c(Nc4ccc(I)cc4F)n(C)c(=O)c(C)c32)c1 [TRAMETINIB]
10 | > 30 µM (inactive) | > 30 µM (inactive) | > 30 µM (inactive) | > 30 µM (inactive) | > 30 µM (inactive) | > 30 µM (inactive) | > 30 µM (inactive) | > 30 µM (inactive) | > 30 µM (inactive) | CC(C)Nc1cc(-c2c[nH]c(C(=O)N[C@H](CO)c3cccc(Cl)c3)c2)c(Cl)cn1 [ULIXERTINIB]
11 | > 30 µM (inactive) | > 30 µM (inactive) | > 30 µM (inactive) | > 30 µM (inactive) | > 30 µM (inactive) | > 30 µM (inactive) | > 30 µM (inactive) | > 30 µM (inactive) | > 30 µM (inactive) | CCCS(=O)(=O)Nc1ccc(F)c(C(=O)c2c[nH]c3ncc(-c4ccc(Cl)cc4)cc23)c1F [VEMURAFENIB]
12 | > 30 µM (inactive) | > 30 µM (inactive) | > 30 µM (inactive) | > 30 µM (inactive) | > 30 µM (inactive) | > 30 µM (inactive) | > 30 µM (inactive) | > 30 µM (inactive) | > 30 µM (inactive) | CC[C@@H]1C(=O)N(C)c2cnc(Nc3ccc(C(=O)N[C@H]4CC[C@H](N5CCN(CC6CC6)CC5)CC4)cc3OC)nc2N1C(C)C [VOLASERTIB]
13 | > 30 µM (inactive) | > 30 µM (inactive) | > 30 µM (inactive) | > 30 µM (inactive) | > 30 µM (inactive) | > 30 µM (inactive) | > 30 µM (inactive) | > 30 µM (inactive) | > 30 µM (inactive) | CCn1c(=O)c(-c2cc[nH]n2)cc2c(C)nc(N)nc21 [VOXTALISIB]
14 | > 30 µM (inactive) | > 30 µM (inactive) | > 30 µM (inactive) | > 30 µM (inactive) | 0.39 µM (active) | > 30 µM (inactive) | > 30 µM (inactive) | > 30 µM (inactive) | > 30 µM (inactive) | O=C(Nc1ccc(-c2ccnc(Nc3ccc(N4CCOCC4)cc3)n2)cc1)C1CCCN1 (stereo unspecified) [XL-019]

Reference: ChEMBL document CHEMBL3991601, “The target landscape of clinical kinase drugs” (Science, 2017)
